Source: patent US4267192A, “Method for treating inflammation” (priority 1980, dated 1981)
Where two headings read alike, the source gives them in different places.

What was measured:
[1] = system: carrageenan-induced edema in the hind paw of normal and adrenalectomized rats; test: carrageenan paw edema in normal and adrenalectomized rats; type: in vivo, rat
Protocol: Vehicle alone is administered as a control. Sixty minutes after drug administration edema is induced by an injection of 0.1 ml. of a 1% carrageenan solution is saline into the subplantar tissue of the rat's right hind paw. Two minutes later, paw volume is measured volumetrically with a plethysmograph and again 3 hours later. The mean volume of swelling for the control group is calculated and compared to the test groups. Percent change in paw edema is calculated and analyzed statistically (unpaired, Student's t-test).
Normal rats received the same doses as adrenalectomized rats.

[2] = system: adjuvant arthritis in rats; test: Adjuvant Arthritis Test, periodic administration (with daily regimen for comparison); settings: rat; for Increase in Paw Volume 0-16 days (left paw) / Increase in Right Paw Volume (ml.) 0-4 days: mean ± S.E.
Protocol: (§1) Polyarthritis is induced in groups of 6-10 Sprague-Dawley rats weighing between 180-220 g. by a subcutaneous injection into the right paw of dessicated Mycobacterium butyricum or tuberculosis (0.5 mg/0.1 ml.) suspended in light mineral oil. […] Both hind paw volumes (ml.) are measured by mercury plethysmograph on day 0 or at the time of injection of the complete adjuvant. Increases in paw volume (viz. edema) are determined for both paws on days 4 and 16. The change in body weight from day 0 to day 16 is also calculated. Statistical analysis of differences in paw edemas and body weight is performed by using the unpaired. Student's t-test.
Adjuvant arthritis is induced as described in A. above, but drugs are administered only on days 2, 3, 4 or on days 8, 9, 10.

[3] = system: polyarthritis induced by Mycobacterium butyricum or tuberculosis in rats; settings: for Increase in Left Paw Volume (ml.) 0-16 days / Increase in Right Paw Volume (ml.) 0-4 days: mean ± S.E.
Protocol: as §1

[4] = system: rat stomach (gastric ulcers, gastric swelling); type: in vivo, rat (male Charles River, Sprague-Dawley); settings: for Number of Animals With Gastric Swelling / Number of Animals With Gastric Ulcers: 4 hours after dosing
Protocol: The rats are divided into groups 6-10 and dosed by the oral route with test compound, on a mg/kg. body weight basis, or vehicle control, 0.5% carboxymethylcellulose, in a volume of 3 ml. per rat. Four hours after dosing, the rats are decapitated and exsanguinated. Stomachs are removed and examined for gastric swelling and then opened and washed for visual inspection of gastric ulcers. Only one lesion or gastric bleeding is necessary for a positive response. Data is reported quantally.

[5] = Adrenalectomized Rats, oral 100 mg/kg
[6] = Adrenalectomized Rats, oral 200 mg/kg
[7] = oral 2 mg/kg, Daily (0-15) except weekends
[8] = oral 6 mg/kg, Daily (0-15) except weekends
[9] = oral 18 mg/kg, Daily (0-15) except weekends
[10] = rat, oral 3.0 mg/kg daily, Table 3 group a
[11] = rat, oral 5.0 mg/kg daily, Table 3 group b
[12] = rat, oral 10.0 mg/kg daily, Table 3 group a
[13] = rat, oral 10.0 mg/kg daily, Table 3 group b
[14] = rat, oral 25.0 mg/kg daily, Table 3 group b
[15] = rat, oral 30.0 mg/kg daily, Table 3 group a
[16] = rat, oral 100.0 mg/kg daily, Table 3 group a
[17] = rat, oral 300.0 mg/kg daily, Table 3 group a

O=C(O)C=C1c2ccccc2C=Cc2ccccc21 [DCHA]
% Inhibition [1, 5]: 37% | Edema (ml) ± S.E. [1, 5]: 0.57 ± .02 mL | % Inhibition [1, 6]: 41% | Edema (ml) ± S.E. [1, 6]: 0.81 ± .04 mL | % Inhibition ([1]; Normal Rats, oral 100 mg/kg): 38% | Mean Edema (ml) ± S.E. ([1]; Normal Rats, oral 100 mg/kg): 0.58 ± .04 mL | % Inhibition ([1]; Normal Rats, oral 200 mg/kg): 44% | Mean Edema (ml) ± S.E. ([1]; Normal Rats, oral 200 mg/kg): 0.53 ± .05 mL | action by stimulating naturally occurring steroids ([1]; in words): independent of the adrenal glands | anti-inflammatory activity in adrenalectomized rats compared with normal control animals ([1]; oral 100 and 200 mg/kg): not different from that observed in normal control animals | activity in short term dosing regimen ([2]; days 2, 3, 4): less so | activity in short term dosing regimen ([2]; days 8, 9, 10): active | % Change of Left Paw Edema at Day 16 [2, 7]: +12% | % Change of Right Paw Edema at Day 4 [2, 7]: +17% | Change In Body Weight (mean ± S.E.) 0-16 days [2, 7]: 8.9 ± 7.8 | Increase in Paw Volume 0-16 days (left paw) [2, 7]: 0.82 ± 0.18 | Increase in Right Paw Volume (ml.) 0-4 days [2, 7]: 1.60 ± 0.08 mL | % Change of Left Paw Edema at Day 16 [2, 8]: -16% | % Change of Right Paw Edema at Day 4 [2, 8]: -24% | Change In Body Weight (mean ± S.E.) 0-16 days [2, 8]: 6.0 ± 4.8 | Increase in Paw Volume 0-16 days (left paw) [2, 8]: 0.62 ± 0.04 | Increase in Right Paw Volume (ml.) 0-4 days [2, 8]: 1.03 ± 0.06 mL | % Change of Left Paw Edema at Day 16 ([2]; oral 10 mg/kg, Days 2,3,4): -22% | % Change of Right Paw Edema at Day 4 ([2]; oral 10 mg/kg, Days 2,3,4): -33% | Change In Body Weight (mean ± S.E.) 0-16 days ([2]; oral 10 mg/kg, Days 2,3,4): 14.7 ± 11.7 | Increase in Paw Volume 0-16 days (left paw) ([2]; oral 10 mg/kg, Days 2,3,4): 0.58 ± 0.13 | Increase in Right Paw Volume (ml.) 0-4 days ([2]; oral 10 mg/kg, Days 2,3,4): 0.92 ± 0.07 mL | % Change of Left Paw Edema at Day 16 ([2]; oral 10 mg/kg, Days 8,9,10): -58% | Change In Body Weight (mean ± S.E.) 0-16 days ([2]; oral 10 mg/kg, Days 8,9,10): 10.5 ± 7.9 | Increase in Paw Volume 0-16 days (left paw) ([2]; oral 10 mg/kg, Days 8,9,10): 0.31 ± 0.06 | % Change of Left Paw Edema at Day 16 [2, 9]: -65% | % Change of Right Paw Edema at Day 4 [2, 9]: -41% | Change In Body Weight (mean ± S.E.) 0-16 days [2, 9]: 18.3 ± 6.7 | Increase in Paw Volume 0-16 days (left paw) [2, 9]: 0.26 ± 0.05 | Increase in Right Paw Volume (ml.) 0-4 days [2, 9]: 0.81 ± 0.07 mL | potency relative to aspirin ([3]; chronic inflammatory disease mediated mainly through immunological mechanisms, in words): several times more potent than aspirin | toxicity at high doses ([3]; in words): no apparent toxicity at high doses | % Change of Left Paw Edema at Day 16 [3, 10]: -45% | % Change of Right Paw Edema at Day 4 [3, 10]: -15% | Change In Body Weight (mean ± S.E.) 0-16 days [3, 10]: 22.5 ± 9.6 | Increase in Left Paw Volume (ml.) 0-16 days [3, 10]: 0.43 ± .09 mL | Increase in Right Paw Volume (ml.) 0-4 days [3, 10]: 1.33 ± .11 mL | % Change of Left Paw Edema at Day 16 [3, 11]: -5.4% | % Change of Right Paw Edema at Day 4 [3, 11]: -30% | Change In Body Weight (mean ± S.E.) 0-16 days [3, 11]: 19.5 ± 5.8 | Increase in Left Paw Volume (ml.) 0-16 days [3, 11]: 0.70 ± .05 mL | Increase in Right Paw Volume (ml.) 0-4 days [3, 11]: 1.30 ± .08 mL | % Change of Left Paw Edema at Day 16 [3, 12]: -47% | % Change of Right Paw Edema at Day 4 [3, 12]: -55% | Change In Body Weight (mean ± S.E.) 0-16 days [3, 12]: 25.6 ± 8.0 | Increase in Left Paw Volume (ml.) 0-16 days [3, 12]: 0.41 ± .04 mL | Increase in Right Paw Volume (ml.) 0-4 days [3, 12]: 0.70 ± .06 mL | % Change of Left Paw Edema at Day 16 [3, 13]: -55% | % Change of Right Paw Edema at Day 4 [3, 13]: -39% | Change In Body Weight (mean ± S.E.) 0-16 days [3, 13]: 33.3 ± 5.5 | Increase in Left Paw Volume (ml.) 0-16 days [3, 13]: 0.33 ± .06 mL | Increase in Right Paw Volume (ml.) 0-4 days [3, 13]: 1.14 ± .04 mL | % Change of Left Paw Edema at Day 16 [3, 14]: -47% | % Change of Right Paw Edema at Day 4 [3, 14]: -47% | Change In Body Weight (mean ± S.E.) 0-16 days [3, 14]: 30.3 ± 5.7 | Increase in Left Paw Volume (ml.) 0-16 days [3, 14]: 0.39 ± .04 mL | Increase in Right Paw Volume (ml.) 0-4 days [3, 14]: 1.00 ± .05 mL | % Change of Left Paw Edema at Day 16 [3, 15]: -62% | % Change of Right Paw Edema at Day 4 [3, 15]: -58% | Change In Body Weight (mean ± S.E.) 0-16 days [3, 15]: 45.8 ± 5.6 | Increase in Left Paw Volume (ml.) 0-16 days [3, 15]: 0.30 ± .05 mL | Increase in Right Paw Volume (ml.) 0-4 days [3, 15]: 0.66 ± .06 mL | weight gain ([3]; rat, oral 100 mg/kg): 51 g | % Change of Left Paw Edema at Day 16 [3, 16]: -60% | % Change of Right Paw Edema at Day 4 [3, 16]: -53% | Change In Body Weight (mean ± S.E.) 0-16 days [3, 16]: 50.6 ± 5.4 | Increase in Left Paw Volume (ml.) 0-16 days [3, 16]: 0.31 ± .05 mL | Increase in Right Paw Volume (ml.) 0-4 days [3, 16]: 0.74 ± .08 mL | weight gain ([3]; rat, oral 300 mg/kg): 58 g | % Change of Right Paw Edema at Day 4 [3, 17]: -58% | Change In Body Weight (mean ± S.E.) 0-16 days [3, 17]: 58.2 ± 8.3 | Increase in Left Paw Volume (ml.) 0-16 days [3, 17]: 0.14 ± .06 mL | Increase in Right Paw Volume (ml.) 0-4 days [3, 17]: 0.66 ± .05 mL | toxic signs or loss of body weight ([3]; rat, oral 100 and 300 mg/kg): did not show any toxic signs or loss of body weight | anti-inflammatory activity in the adjuvant arthritis test ([3]; rat, oral, daily): significant anti-inflammatory activity | estimated ED50 (adjuvant arthritis test) ([3]; rat, oral, daily): ~15 mg/kg | active doses, right paw edema at 4 days (acute, non-specific inflammation) ([3]; rat, orally): 10 to 300 mg/kg | effective doses, left paw edema (immunologically induced inflammation) ([3]; rat, orally): 3-300 mg/kg | gastric irritation ([4]; in words): neither causing gastric irritation nor affecting gastric secretions | effect on gastric secretion ([4]; in words, high doses): no effect on gastric secretion | gastric ulceration ([4]; rat, doses up to 480 mg/kg, in words): no gastric ulceration | Number of Animals With Gastric Swelling ([4]; rat, oral 60 mg/kg): 0/6 | Number of Animals With Gastric Ulcers ([4]; rat, oral 60 mg/kg): 0/6 | Number of Animals With Gastric Swelling ([4]; rat, oral 120 mg/kg): 0/6 | Number of Animals With Gastric Ulcers ([4]; rat, oral 120 mg/kg): 0/6 | Number of Animals With Gastric Swelling ([4]; rat, oral 240 mg/kg): 0/6 | Number of Animals With Gastric Ulcers ([4]; rat, oral 240 mg/kg): 0/6 | Number of Animals With Gastric Swelling ([4]; rat, oral 480 mg/kg): 0/6 | Number of Animals With Gastric Ulcers ([4]; rat, oral 480 mg/kg): 0/6
